{"source": "paper PMC4830392", "about": "(Biochemical pharmacology, 2015)", "target": "OXE receptor (Felis catus, UniProt A0ABI7XKF2)", "sequence (A0ABI7XKF2 1-379)": "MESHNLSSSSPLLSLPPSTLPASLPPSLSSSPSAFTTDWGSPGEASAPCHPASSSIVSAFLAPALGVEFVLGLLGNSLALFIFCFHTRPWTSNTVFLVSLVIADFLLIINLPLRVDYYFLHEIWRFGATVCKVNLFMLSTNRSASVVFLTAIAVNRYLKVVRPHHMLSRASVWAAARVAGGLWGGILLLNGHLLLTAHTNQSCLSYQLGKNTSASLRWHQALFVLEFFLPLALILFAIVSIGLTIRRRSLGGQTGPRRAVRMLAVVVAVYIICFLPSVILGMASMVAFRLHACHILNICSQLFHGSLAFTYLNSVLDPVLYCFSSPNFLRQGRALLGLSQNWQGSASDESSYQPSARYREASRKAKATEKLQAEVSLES", "assay": "actin polymerization", "assay_type": "cell-based", "data": [{"smiles": "CCCCC/C=C\\C/C=C\\C/C=C\\C=C\\C(=O)CCCC(=O)O", "note": "[5-oxo-ETE, 5-oxo-6E,8Z,11Z,14Z-eicosatetraenoic acid]", "values": [{"measurement": "EC50", "value": 0.72, "unit": "nM"}]}]}
